Experiments:
[1] = system: PC-9; test: cells; conditions: Homo sapiens
[2] = Cmax in C57BL/6 mouse at 1 mg/kg, iv measured for 0.5 to […] htr by LC-MS/MS analysis; type: ADME, organism-based; conditions: in vivo, time 0.5-12 hrs
[3] = Tmax in C57BL/6 mouse at 1 mg/kg, iv measured for 0.5 to 12 htr by LC-MS/MS analysis; type: ADME, organism-based; conditions: in vivo, time 0.5-12 hrs
[4] = Half life in C57BL/6 mouse at 10 mg/kg, po measured for 0.5 to 12 htr by LC-MS/MS analysis; type: ADME, organism-based; conditions: in vivo, time 0.5-12 hrs
[5] = Selectivity ratio of IC50 for inhibition of human PLK2 using ATF2 as substrate to IC50 for inhibition of human PLK1 using ATF2 as substrate
[6] = Effect on mitochondrial membrane integrity in HEK293T cells at 10 uM incubated for 24 hrs by JC-1 dye based analysis; type: toxicity, cell-based; conditions: human, hek-293t
[7] = MRT (0 to t) in C57BL/6 mouse at 10 mg/kg, po measured for 0.5 to 12 htr by LC-MS/MS analysis; type: ADME, organism-based; conditions: in vivo, time 0.5-12 hrs
[8] = system: NCI-H460; test: cells; conditions: Homo sapiens
[9] = AUC (0 to infinity) in C57BL/6 mouse at 1 mg/kg, iv measured for 0.5 to 12 htr by LC-MS/MS analysis; type: ADME, organism-based; conditions: in vivo, time 0.5-12 hrs
[10] = target: Serine/threonine-protein kinase PLK3 (Homo sapiens, UniProt Q9H4B4); test: Inhibition of human PLK3 using ATF2 as substrate incubated for 40 mins in presence of [gamma-33P]ATP/Mg acetate by scintillation counting analysis
[11] = target: Serine/threonine-protein kinase PLK2 (Homo sapiens, UniProt Q9NYY3); test: Inhibition of human PLK2 using ATF2 as substrate incubated for 40 mins in presence of [gamma-33P]ATP/Mg acetate by scintillation counting analysis
[12] = system: CCRF-CEM; test: cells; conditions: Homo sapiens
[13] = Tmax in C57BL/6 mouse at 10 mg/kg, po measured for 0.5 to 12 htr by LC-MS/MS analysis; type: ADME, organism-based; conditions: in vivo, time 0.5-12 hrs
[14] = AUC (0 to infinity) in C57BL/6 mouse at 10 mg/kg, po measured for 0.5 to 12 htr by LC-MS/MS analysis; type: ADME, organism-based; conditions: in vivo, time 0.5-12 hrs
[15] = Cmax in C57BL/6 mouse at 10 mg/kg, po measured for 0.5 to […] htr by LC-MS/MS analysis; type: ADME, organism-based; conditions: in vivo, time 0.5-12 hrs
[16] = Selectivity ratio of IC50 for inhibition of human PLK3 using ATF2 as substrate to IC50 for inhibition of human PLK1 using ATF2 as substrate
[17] = system: HL-60; test: cells; conditions: Homo sapiens
[18] = system: A549; test: cells; conditions: Homo sapiens
[19] = AUC (0 to t) in C57BL/6 mouse at 10 mg/kg, po measured for 0.5 to […] htr by LC-MS/MS analysis; type: ADME, organism-based; conditions: in vivo, time 0.5-12 hrs
[20] = system: SW-620; test: cells; conditions: Homo sapiens
[21] = Clearance in C57BL/6 mouse at 1 mg/kg, iv measured for 0.5 to […] htr by LC-MS/MS analysis; type: ADME, organism-based; conditions: in vivo, time 0.5-12 hrs
[22] = Solubility of compound in 0.01 M PBS at pH 7.4 assessed as fold increase equilibrated for 12 hrs by UV spectrophotometry relative to BI 2536; type: physicochemical; conditions: buffer, pH 7.4, 12 h
[23] = system: KG-1; test: cells; conditions: Homo sapiens
[24] = MRT (0 to t) in C57BL/6 mouse at 1 mg/kg, iv measured for 0.5 to 12 htr by LC-MS/MS analysis; type: ADME, organism-based; conditions: in vivo, time 0.5-12 hrs
[25] = target: Voltage-gated inwardly rectifying potassium channel KCNH2 (Homo sapiens, UniProt Q12809); test: Inhibition of hERG transfected in CHO cells; type: toxicity, cell-based
[26] = AUC (0 to t) in C57BL/6 mouse at 1 mg/kg, iv measured for 0.5 to […] htr by LC-MS/MS analysis; type: ADME, organism-based; conditions: in vivo, time 0.5-12 hrs
[27] = system: K562; test: cells; conditions: Homo sapiens
[28] = Half life in C57BL/6 mouse at 1 mg/kg, iv measured for 0.5 to 12 htr by LC-MS/MS analysis; type: ADME, organism-based; conditions: in vivo, time 0.5-12 hrs
[29] = Cytotoxicity against HEK293T cells assessed as cell viability at 30 uM by CCK8 assay relative to control; type: toxicity, cell-based, HEK-293T; conditions: human, read-out: Activity
[30] = system: HEK-293T; test: Effect on mitochondrial membrane potential in HEK293T cells at 10 uM incubated for 24 hrs by MitoTracker Red probe based analysis; type: toxicity, cell-based; conditions: human
[31] = Cytotoxicity against HEK293T cells assessed as inhibition of cell viability by CCK8 assay; type: toxicity, cell-based, HEK-293T; conditions: human
[32] = system: HEK-293T; test: Cytotoxicity against HEK293T cells by CCK8 assay; type: toxicity, cell-based; conditions: human, dose 0.1-30 µM
[33] = C0 in C57BL/6 mouse at 1 mg/kg, iv measured for 0.5 to 12 htr by LC-MS/MS analysis; type: ADME, organism-based; conditions: in vivo, time 0.5-12 hrs
[34] = Effect on F-actin cytoskeleton in HEK293T cells at 10 uM incubated for 24 hrs by immunofluorescence based analysis; type: toxicity, cell-based; conditions: human, hek-293t
[35] = Volume of distribution at steady state in C57BL/6 mouse at 1 mg/kg, iv measured for 0.5 to 12 htr by LC-MS/MS analysis; type: ADME, organism-based; conditions: in vivo, time 0.5-12 hrs, read-out: Vdss
[36] = Oral bioavailability in C57BL/6 mouse at 10 mg/kg measured for 0.5 to […] htr by LC-MS/MS analysis; type: ADME, organism-based; conditions: in vivo, time 0.5-12 hrs
[37] = target: Serine/threonine-protein kinase PLK1 (Homo sapiens, UniProt P53350); test: Inhibition of human PLK1 using ATF2 as substrate incubated for 40 mins in presence of [gamma-33P]ATP/Mg acetate by scintillation counting analysis
[38] = Metabolic stability in mouse liver microsomes assessed as intrinsic clearance preincubated for 5 mins followed by NADPH addition by LC-MS/MS analysis; type: ADME, Microsome; conditions: read-out: CLH
[39] = Metabolic stability in mouse liver microsomes assessed as half life preincubated for 5 mins followed by NADPH addition by LC-MS/MS analysis; type: ADME, Microsome
[40] = Metabolic stability in mouse liver microsomes assessed as intrinsic clearance in microsome measured per mg protein preincubated for 5 mins followed by NADPH addition by LC-MS/MS analysis; type: ADME; conditions: read-out: CLH
[41] = Metabolic stability in dog liver microsomes assessed as intrinsic clearance in microsome measured per mg protein preincubated for 5 mins followed by NADPH addition by LC-MS/MS analysis; type: ADME, Canis lupus familiaris; conditions: read-out: CLH
[42] = Metabolic stability in human liver microsomes assessed as half life preincubated for 5 mins followed by NADPH addition by LC-MS/MS analysis; type: ADME, Microsome
[43] = Metabolic stability in human liver microsomes assessed as intrinsic clearance preincubated for 5 mins followed by NADPH addition by LC-MS/MS analysis; type: ADME, Microsome; conditions: read-out: CLH
[44] = Metabolic stability in dog liver microsomes assessed as intrinsic clearance preincubated for 5 mins followed by NADPH addition by LC-MS/MS analysis; type: ADME, Canis lupus familiaris, Microsome; conditions: read-out: CLH
[45] = Metabolic stability in dog liver microsomes assessed as half life preincubated for 5 mins followed by NADPH addition by LC-MS/MS analysis; type: ADME, Canis lupus familiaris, Microsome
[46] = Metabolic stability in human liver microsomes assessed as intrinsic clearance in microsome measured per mg protein preincubated for 5 mins followed by NADPH addition by LC-MS/MS analysis; type: ADME; conditions: read-out: CLH

Serine/threonine-protein kinase PLK2, sequence (Q9NYY3 whole entry): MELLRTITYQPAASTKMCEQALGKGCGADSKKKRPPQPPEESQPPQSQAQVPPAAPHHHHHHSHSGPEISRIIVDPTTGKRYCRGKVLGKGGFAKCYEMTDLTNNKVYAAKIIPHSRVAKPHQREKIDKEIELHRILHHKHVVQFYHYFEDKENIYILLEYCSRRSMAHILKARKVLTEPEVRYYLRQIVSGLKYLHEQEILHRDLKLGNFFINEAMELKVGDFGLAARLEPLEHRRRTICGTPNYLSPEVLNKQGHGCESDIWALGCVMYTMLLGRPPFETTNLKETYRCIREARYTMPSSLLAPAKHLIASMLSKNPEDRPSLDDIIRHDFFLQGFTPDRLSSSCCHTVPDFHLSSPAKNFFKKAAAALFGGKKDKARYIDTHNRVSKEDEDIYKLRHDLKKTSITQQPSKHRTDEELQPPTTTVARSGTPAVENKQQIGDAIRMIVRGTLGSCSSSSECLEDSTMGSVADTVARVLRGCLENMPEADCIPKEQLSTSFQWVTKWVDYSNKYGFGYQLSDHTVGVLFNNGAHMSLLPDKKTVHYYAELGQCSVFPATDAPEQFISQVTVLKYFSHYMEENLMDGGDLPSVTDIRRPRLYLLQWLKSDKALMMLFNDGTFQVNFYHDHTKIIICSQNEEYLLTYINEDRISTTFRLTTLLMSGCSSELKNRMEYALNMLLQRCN
Serine/threonine-protein kinase PLK3, sequence (Q9H4B4 whole entry): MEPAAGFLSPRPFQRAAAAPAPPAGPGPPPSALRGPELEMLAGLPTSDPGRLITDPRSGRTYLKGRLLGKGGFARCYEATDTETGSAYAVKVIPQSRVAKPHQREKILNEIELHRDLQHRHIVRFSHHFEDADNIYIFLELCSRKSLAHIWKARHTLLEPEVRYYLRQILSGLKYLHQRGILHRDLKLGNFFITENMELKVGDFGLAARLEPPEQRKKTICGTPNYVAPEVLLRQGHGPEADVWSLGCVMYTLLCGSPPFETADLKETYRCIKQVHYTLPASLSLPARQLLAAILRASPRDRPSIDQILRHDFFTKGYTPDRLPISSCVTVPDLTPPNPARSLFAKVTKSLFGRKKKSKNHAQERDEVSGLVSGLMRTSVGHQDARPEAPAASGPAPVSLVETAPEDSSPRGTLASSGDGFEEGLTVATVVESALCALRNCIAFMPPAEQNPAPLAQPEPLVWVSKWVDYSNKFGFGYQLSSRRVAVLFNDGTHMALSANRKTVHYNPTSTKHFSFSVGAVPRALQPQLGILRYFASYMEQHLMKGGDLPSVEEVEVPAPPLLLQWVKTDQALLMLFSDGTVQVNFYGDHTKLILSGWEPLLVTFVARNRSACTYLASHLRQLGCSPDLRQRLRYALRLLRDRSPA
Serine/threonine-protein kinase PLK1, sequence (P53350 whole entry): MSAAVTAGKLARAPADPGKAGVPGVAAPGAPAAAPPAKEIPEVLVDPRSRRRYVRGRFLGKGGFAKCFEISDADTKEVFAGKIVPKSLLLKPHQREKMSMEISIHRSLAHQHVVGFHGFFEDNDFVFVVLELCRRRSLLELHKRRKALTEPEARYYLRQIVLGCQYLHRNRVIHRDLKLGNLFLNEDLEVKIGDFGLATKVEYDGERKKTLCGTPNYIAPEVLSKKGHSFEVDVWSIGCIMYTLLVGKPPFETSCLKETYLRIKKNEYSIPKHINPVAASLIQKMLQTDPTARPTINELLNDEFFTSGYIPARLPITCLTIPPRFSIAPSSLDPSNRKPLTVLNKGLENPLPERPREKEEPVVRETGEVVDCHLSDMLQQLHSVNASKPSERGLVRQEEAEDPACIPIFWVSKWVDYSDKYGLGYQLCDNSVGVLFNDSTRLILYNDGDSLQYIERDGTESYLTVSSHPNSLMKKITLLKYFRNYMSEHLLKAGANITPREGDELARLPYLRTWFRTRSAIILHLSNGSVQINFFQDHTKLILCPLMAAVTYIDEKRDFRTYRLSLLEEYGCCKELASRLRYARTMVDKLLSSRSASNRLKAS
Voltage-gated inwardly rectifying potassium channel KCNH2, sequence (Q12809 whole entry): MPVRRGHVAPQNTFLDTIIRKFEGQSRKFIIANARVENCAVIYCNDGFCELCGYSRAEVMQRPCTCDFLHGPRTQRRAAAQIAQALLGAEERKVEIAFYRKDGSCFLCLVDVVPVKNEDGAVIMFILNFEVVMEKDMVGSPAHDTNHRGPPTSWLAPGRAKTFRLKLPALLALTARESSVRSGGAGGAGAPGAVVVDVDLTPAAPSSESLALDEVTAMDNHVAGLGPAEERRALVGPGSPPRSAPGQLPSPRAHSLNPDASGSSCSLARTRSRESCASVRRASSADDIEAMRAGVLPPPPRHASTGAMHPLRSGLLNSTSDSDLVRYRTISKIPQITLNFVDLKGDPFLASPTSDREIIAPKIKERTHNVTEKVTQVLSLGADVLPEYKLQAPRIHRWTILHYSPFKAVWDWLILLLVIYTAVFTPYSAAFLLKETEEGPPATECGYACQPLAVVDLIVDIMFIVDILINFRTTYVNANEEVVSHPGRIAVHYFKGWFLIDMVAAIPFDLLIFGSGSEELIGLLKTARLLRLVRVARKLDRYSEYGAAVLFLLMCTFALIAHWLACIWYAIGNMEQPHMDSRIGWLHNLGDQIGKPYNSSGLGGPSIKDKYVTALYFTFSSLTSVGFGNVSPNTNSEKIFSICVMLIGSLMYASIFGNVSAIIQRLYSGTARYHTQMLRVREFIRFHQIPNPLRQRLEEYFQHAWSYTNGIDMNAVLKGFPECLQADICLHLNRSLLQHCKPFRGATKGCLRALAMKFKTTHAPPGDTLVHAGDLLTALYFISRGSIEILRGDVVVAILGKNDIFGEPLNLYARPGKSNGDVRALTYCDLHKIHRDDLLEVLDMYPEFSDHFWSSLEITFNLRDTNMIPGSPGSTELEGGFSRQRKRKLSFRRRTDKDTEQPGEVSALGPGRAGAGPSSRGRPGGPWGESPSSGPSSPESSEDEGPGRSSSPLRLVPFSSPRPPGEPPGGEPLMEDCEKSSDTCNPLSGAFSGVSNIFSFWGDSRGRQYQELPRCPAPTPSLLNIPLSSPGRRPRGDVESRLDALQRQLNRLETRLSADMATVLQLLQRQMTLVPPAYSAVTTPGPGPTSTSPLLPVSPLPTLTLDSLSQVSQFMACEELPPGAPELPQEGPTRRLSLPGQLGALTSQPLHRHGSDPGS

SMILES: CC[C@@H]1C(=O)N(C)c2cnc(Nc3cc(N4CCN(C)CC4)ccc3OCCCO)nc2N1C1CCCC1
- IC50 [1]: 164 nM
- Cmax [2]: 471 ng/mL
- Tmax [3]: 4.98 min
- half-life [4]: 66 min
- ratio [5]: 247
- Activity [6]: Non-toxic
- MRT last [7]: 108 min
- IC50 [8]: 32 nM
- AUC(0-inf) [9]: 228 ng·h/mL
- IC50 [10]: 3230 nM
- IC50 [11]: 4940 nM
- IC50 [12]: 40 nM
- Tmax [13]: 25.2 min
- AUC(0-inf) [14]: 452 ng·h/mL
- Cmax [15]: 201 ng/mL
- ratio [16]: 161
- IC50 [17]: 53 nM
- IC50 [18]: 154 nM
- AUC(0-t) [19]: 449 ng·h/mL
- IC50 [20]: 217 nM
- clearance [21]: 73 mL/min/kg
- fold change (FC) [22]: > 2
- IC50 [23]: > 10000 nM
- MRT last [24]: 34.8 min
- IC50 [25]: 13300 nM
- AUC(0-t) [26]: 226 ng·h/mL
- IC50 [27]: 0.67 nM
- half-life [28]: 40.8 min
- viability at 30 µM [29]: 16.5%
- Activity [30]: Non-toxic
- IC50 [31]: 38200 nM
- Activity [32]: Dose-dependent-effect
- C0 [33]: 753 ng/mL
- Activity [34]: Non-toxic
- Vd [35]: 2.5 L/kg
- bioavailability [36]: 20%
- IC50 [37]: 20 nM

SMILES: CC[C@@H]1C(=O)N(C)c2cnc(Nc3cc(N4CCN(C)CC4)cc(F)c3OCCCO)nc2N1C1CCCC1
- IC50 [1]: 65 nM
- ratio [5]: 700
- IC50 [8]: 27 nM
- IC50 [10]: 2000 nM
- IC50 [11]: 7900 nM
- IC50 [12]: 90 nM
- ratio [16]: 178
- IC50 [17]: 31 nM
- IC50 [18]: 103 nM
- IC50 [20]: 18 nM
- IC50 [23]: 4810 nM
- IC50 [27]: 1780 nM
- IC50 [37]: 11 nM

SMILES: CC[C@@H]1C(=O)N(C)c2cnc(Nc3cc(N4CCN(C)CC4)cc(F)c3OC[C@H](C)O)nc2N1C1CCCC1
- IC50 [1]: 1990 nM
- ratio [5]: > 658
- IC50 [8]: 326 nM
- IC50 [10]: 3670 nM
- IC50 [11]: > 10000 nM
- IC50 [12]: 63 nM
- ratio [16]: 373
- IC50 [17]: 54 nM
- IC50 [18]: 1540 nM
- IC50 [20]: 18 nM
- IC50 [23]: 588 nM
- IC50 [27]: 7.7 nM
- IC50 [37]: 15 nM

SMILES: CC[C@@H]1C(=O)N(C)c2cnc(Nc3cc(N4CCN(C)CC4)cc(F)c3OCCO)nc2N1C1CCCC1
- IC50 [1]: 82 nM
- ratio [5]: > 952
- IC50 [8]: 76 nM
- IC50 [10]: 3220 nM
- IC50 [11]: > 10000 nM
- IC50 [12]: 64 nM
- ratio [16]: 306
- IC50 [17]: 39 nM
- IC50 [18]: 57 nM
- IC50 [20]: 6.8 nM
- IC50 [23]: > 10000 nM
- IC50 [27]: 5190 nM
- IC50 [37]: 11 nM

SMILES: CC[C@@H]1C(=O)N(C)c2cnc(Nc3ccc(C(=O)NC4CCN(C)CC4)cc3OC)nc2N1C1CCCC1 [BI-2536]
- CLint scaled [38]: 136 mL/min/kg
- Cmax [2]: 175 ng/mL
- half-life [39]: 40.2 min
- Tmax [3]: 4.98 min
- half-life [4]: 84 min
- MRT last [7]: 126 min
- AUC(0-inf) [9]: 117 ng·h/mL
- Tmax [13]: 25.2 min
- AUC(0-inf) [14]: 96 ng·h/mL
- microsomal CLint [40]: 34.5 µL/min/mg
- Cmax [15]: 40 ng/mL
- microsomal CLint [41]: 50.6 µL/min/mg
- half-life [42]: 57.4 min
- AUC(0-t) [19]: 89 ng·h/mL
- clearance [21]: 143 mL/min/kg
- MRT last [24]: 42 min
- AUC(0-t) [26]: 116 ng·h/mL
- half-life [28]: 41.4 min
- CLint scaled [43]: 30.3 mL/min/kg
- C0 [33]: 227 ng/mL
- Vd [35]: 6 L/kg
- CLint scaled [44]: 126 mL/min/kg
- half-life [45]: 27.4 min
- microsomal CLint [46]: 24.1 µL/min/mg
- bioavailability [36]: 8.2%

SMILES: CC[C@@H]1C(=O)N(C)c2cnc(Nc3cc(N4CCN(C)CC4)cc(F)c3OCCCO)nc2N1C(C)C
- IC50 [1]: 250 nM
- ratio [5]: > 625
- IC50 [8]: 95 nM
- IC50 [10]: 9370 nM
- IC50 [11]: > 10000 nM
- IC50 [12]: 112 nM
- ratio [16]: 586
- IC50 [17]: 77 nM
- IC50 [18]: 492 nM
- IC50 [20]: 83 nM
- IC50 [23]: 342 nM
- IC50 [27]: 7.7 nM
- IC50 [37]: 16 nM

SMILES: CN1CCN(c2ccc(OC(F)(F)F)c(Nc3ncc4c(n3)-c3c(c(C(N)=O)nn3CCO)CC4)c2)CC1 [ONVANSERTIB]
- IC50 [1]: 58 nM
- IC50 [8]: 36 nM
- IC50 [12]: 34 nM
- IC50 [17]: 89 nM
- IC50 [18]: 45 nM
- IC50 [20]: 18 nM
- IC50 [23]: 8660 nM
- IC50 [27]: 12 nM

Reference: ChEMBL document CHEMBL6153147 (J Med Chem, 2025)
